Measured values published in patent US9597436B2, “Advanced heart failure treatment material as myocardial/cardiovascular regeneration device” (Osaka University, priority 2012, dated 2017).

Assays:
fibroblasts = conditions: cited from earlier work
[1] = tested on: acute hepatopathy induced by carbon tetrachloride; conditions: cited from earlier work
[2] = tested on: coculture of NHDF and HUVEC; assay: Internal regeneration factors under coculture of NHDF and HUVEC; assay type: cell-based, human
Description: The compound 1 is a low molecular […] having the non-PG skeleton, and TXA2 synthase inhibitory action as well as selective IP agonist action is integrated into the molecule.

O=C(O)COc1cccc2c1CCC=C2CCO/N=C(\c1ccccc1)c1cccnc1 [Compound 1, (E)-[5-[2-[1-phenyl-1-(3-pyridyl)methylideneaminoxy]ethyl]-7,8-dihydronaphthalen-1-yloxy]acetic acid]
migration, proliferation, and collagen production of fibroblasts (fibroblasts): suppresses | phosphorylation of ERK1/2 (fibroblasts; progressed due to pathology, by activation of cAMP/PKA): suppresses | hepatocyte protection (anti-apoptotic and anti-necrosis action) [1]: exhibits hepatocyte protection effects | increases in ALT and AST in blood [1]: suppresses | internal regeneration factors (HGF, VEGF, EGF, IGF-1, SDF-1, G-CSF) [2]: indicates various types of internal regeneration factors
